Measurements from patent publication US20170050939A1, “SMALL MOLECULE INHIBITORS OF G PROTEIN COUPLED RECEPTOR 6 KINASE POLYPEPTIDES” (Mayo Foundation for Medical Education and Research, priority 2014, published 2017).
Read-outs that look alike come from different tables or passages of the source.

Biological target: T1, GRK6, recombinant full-length GST-tagged human protein (Homo sapiens, UniProt P43250)
T1 construct: GRK6, recombinant full-length GST-tagged human protein; GST
Experiment: GRK6 IC50 determination (8-point concentration-response)
Type: biochemical
Source text: Two hundred forty compounds were further characterized by determining IC50 values in a GRK6 assay. This screen has been previously described in WO 2013/063458, which is incorporated by reference in its entirety herein.

[1] = 20 nM GRK6, 12 μM ATP (Km), 1 μM Peptide 216, 7 h incubation

T1 sequence (P43250 whole entry): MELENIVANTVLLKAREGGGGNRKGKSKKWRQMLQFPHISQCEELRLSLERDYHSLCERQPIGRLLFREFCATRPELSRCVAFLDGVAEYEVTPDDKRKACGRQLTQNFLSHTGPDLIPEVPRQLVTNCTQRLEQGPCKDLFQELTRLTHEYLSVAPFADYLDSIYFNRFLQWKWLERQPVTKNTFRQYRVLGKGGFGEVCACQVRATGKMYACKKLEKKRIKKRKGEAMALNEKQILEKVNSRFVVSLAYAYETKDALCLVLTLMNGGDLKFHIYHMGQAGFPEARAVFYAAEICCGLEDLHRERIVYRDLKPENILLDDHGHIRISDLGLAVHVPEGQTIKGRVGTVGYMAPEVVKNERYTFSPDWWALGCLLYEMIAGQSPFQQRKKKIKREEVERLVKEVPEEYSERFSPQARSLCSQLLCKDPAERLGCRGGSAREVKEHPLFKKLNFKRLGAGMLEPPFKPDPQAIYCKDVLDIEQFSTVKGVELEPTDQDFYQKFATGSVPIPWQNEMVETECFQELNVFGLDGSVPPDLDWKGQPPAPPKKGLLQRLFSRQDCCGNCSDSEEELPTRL

SMILES | IC50 [µM] | IC50 [1] [µM]
O=C(O)CSc1nnc(-c2cccc(C(=O)Nc3cccnc3)c2)[nH]1 [Compound 177] | 34 | –
O=C(O)CSc1nnc(-c2cc(-c3ccc4ncccc4c3)cc([N+](=O)[O-])c2)[nH]1 [Compound 19] | 0.18 | –
Cc1ccc(-c2cc(-c3ccc4ccccc4c3)cc(-c3nnc(SCC(=O)O)[nH]3)c2)o1 [Compound 63] | 0.824 | –
O=C(O)CSc1nnc(-c2ccc(O)cc2O)[nH]1 [Compound 147] | – | 11.6
O=C(O)CSc1nnc(-c2ccc(-c3cncnc3)cc2)[nH]1 [Compound 134] | – | 7.45
Cc1cc2cc(-c3cc(-c4nnc(SCC(=O)O)[nH]4)cc([N+](=O)[O-])c3)ccc2n1C [Compound 234] | 0.267 | –
CNC(=O)c1cccc(NC(=O)c2cccc(-c3nnc(SCC(=O)O)[nH]3)c2)c1 [Compound 167] | 20.4 | –
COc1ccc2cc(-c3cc(-c4nnc(SCC(=O)O)[nH]4)cc([N+](=O)[O-])c3)ccc2c1 [Compound 23] | 0.199 | –
O=C(O)CSc1nnc(-c2ccc3[nH]cnc3c2)[nH]1 [Compound 125] | 6.45 | –
O=C(O)CSc1nnc(-c2cccc(-c3cnccn3)c2)[nH]1 [Compound 126] | – | 6.5
O=C(O)CSc1nnc(-c2ccc3c(c2)OC(F)(F)O3)[nH]1 [Compound 136] | 7.93 | –
O=C(O)CSc1nnc(-c2ccc3ccccc3c2)[nH]1 [Compound 85] | 0.886 | –
Cn1ccc2ccc(-c3cc(-c4nnc(SCC(=O)O)[nH]4)cc([N+](=O)[O-])c3)cc21 [Compound 1] | 0.05 | –
O=C(O)CSc1nnc(-c2cc(-c3ccc(O)cc3)cc([N+](=O)[O-])c2)[nH]1 [Compound 22] | 0.187 | –
Cc1c(-c2cc(-c3nnc(SCC(=O)O)[nH]3)cc([N+](=O)[O-])c2)cnn1C [Compound 83] | 0.797 | –
O=C(O)CSc1nnc(-c2cc(C(=O)NCc3cccnc3)cc([N+](=O)[O-])c2)[nH]1 [Compound 116] | 4.78 | –
O=C(O)CSc1nnc(-c2cccc3c2OCCCO3)[nH]1 [Compound 197] | > 100 | –
O=C(O)CSc1nnc(-c2cccc3ccccc23)[nH]1 [Compound 174] | 28.1 | –
O=C(O)CSc1nnc(-c2ccc(-c3ccccc3)cc2)[nH]1 [Compound 133] | – | 7.37
CS(=O)(=O)Nc1cccc(-c2cc(-c3nnc(SCC(=O)O)[nH]3)cc([N+](=O)[O-])c2)c1 [Compound 32] | 0.3 | –
O=C(O)CSc1nnc(-c2cc(NC(=O)c3ccoc3)cc(-c3ccc4ccccc4c3)c2)[nH]1 [Compound 67] | 1.31 | –

SMILES | IC50 [µM] | IC50 [1] [µM]
CCn1ccc2cc(-c3cc(-c4nnc(SCC(=O)O)[nH]4)cc([N+](=O)[O-])c3)ccc21 [Compound 11] | 0.118 | –
Cn1c(-c2ccccc2)cc2cc(-c3cc(-c4nnc(SCC(=O)O)[nH]4)cc([N+](=O)[O-])c3)ccc21 [Compound 48] | 0.499 | –
COc1cc(-c2nnc(SCC(=O)O)[nH]2)cc([N+](=O)[O-])c1O [Compound 158] | – | 15.9
O=C(O)CSc1nnc(-c2cc(-c3cccnc3)cc(-c3ccc4ccccc4c3)c2)[nH]1 [Compound 31] | 0.283 | –
Cc1cc(C=O)c(O)c(-c2nnc(SCC(=O)O)[nH]2)c1 [Compound 185] | – | 45.3
O=C(O)CSc1nnc(-c2cc(-c3ccc4[nH]ccc4c3)cc([N+](=O)[O-])c2)[nH]1 [Compound 5] | 0.0739 | –
O=C(O)CSc1nnc(-c2cc(-c3ccc4scnc4c3)cc([N+](=O)[O-])c2)[nH]1 [Compound 20] | 0.184 | –
CC(=O)Nc1cc(-c2ccc3ccccc3c2)cc(-c2nnc(SCC(=O)O)[nH]2)c1 [Compound 35] | 0.351 | –
COc1cc(OC)cc(-c2nnc(SCC(=O)O)[nH]2)c1 [Compound 122] | – | 6.1
O=C(O)CSc1nnc(-c2cc(-c3cnn(Cc4ccccc4)c3)cc([N+](=O)[O-])c2)[nH]1 [Compound 72] | 0.141 | –
O=C(O)CSc1nnc(-c2ccc3c(c2)OCCO3)[nH]1 [Compound 154] | 13.4 | –
O=C(O)CSc1nnc(-c2cc(Br)cc([N+](=O)[O-])c2)[nH]1 [Compound 90] | 1.35 | –
NC(=O)c1cc2cc(-c3cc(-c4n[nH]c(SCC(=O)O)n4)cc([N+](=O)[O-])c3)ccc2[nH]1 [Compound 228] | 0.101 | –
O=C(O)CSc1nnc(-c2cccc(N3CCCCC3)c2)[nH]1 [Compound 187] | – | 51.8
O=C(O)CSc1nnc(-c2cc(Br)ccc2O)[nH]1 [Compound 89] | – | 1.05
O=C(O)CSc1nnc(-c2cc(C(=O)O)ccc2F)[nH]1 [Compound 191] | – | 81.7
N#CCc1cc(-c2ccc3ccccc3c2)cc(-c2nnc(SCC(=O)O)[nH]2)c1 [Compound 18] | 0.178 | –
O=C(O)CSc1nnc(-c2cc(-c3cnn(-c4cccc(Cl)c4)c3)cc([N+](=O)[O-])c2)[nH]1 [Compound 71] | 0.131 | –
O=C(O)CSc1nnc(-c2ccc(N3CCCC3=O)cc2)[nH]1 [Compound 157] | – | 15.4
O=C(O)CSc1nc(-c2cc(Br)cc(-c3ccc4ccccc4c3)c2)n[nH]1 [Compound 40] | 0.421 | –
CCSc1ccc(-c2nnc(SCC(=O)O)[nH]2)cc1 [Compound 141] | – | 8.84

SMILES | IC50 [µM] | IC50 [1] [µM]
COc1ccc(F)c(-c2nnc(SCC(=O)O)[nH]2)c1 [Compound 163] | – | 18.3
O=C(O)CSc1nnc(-c2cccc3cnccc23)[nH]1 [Compound 175] | 29.6 | –
COc1cc(F)c(-c2nnc(SCC(=O)O)[nH]2)c(F)c1 [Compound 181] | – | 38.5
O=C(O)CSc1nnc(-c2cc(-c3ccc4nccnc4c3)cc([N+](=O)[O-])c2)[nH]1 [Compound 50] | 0.509 | –
O=C(O)CSc1nnc(-c2ccc(F)c(F)c2)[nH]1 [Compound 106] | – | 3.36
O=C(O)CSc1nnc(-c2ccc(O)c(O)c2)[nH]1 [Compound 119] | – | 5.02
O=C(O)CSc1nnc(-c2cccc(Oc3ccccc3)c2)[nH]1 [Compound 150] | 12.4 | –
O=C(O)CSc1nnc(-c2cc3c(cc2[N+](=O)[O-])OCO3)[nH]1 [Compound 212] | > 58 | –
O=C(O)CSc1nnc(-c2cccc(C(=O)Nc3cccc4[nH]ncc34)c2)[nH]1 [Compound 146] | 11.4 | –
O=C(O)CSc1nnc(-c2ccc3occc3c2)[nH]1 [Compound 102] | 3.08 | –
CNS(=O)(=O)c1cccc(-c2nnc(SCC(=O)O)[nH]2)c1 [Compound 165] | – | 18.9
O=C(O)CSc1nnc(-c2cc(-c3ccc4cc[nH]c4c3)cc([N+](=O)[O-])c2)[nH]1 [Compound 12] | 0.122 | –
CNS(=O)(=O)c1cccc(-c2cc(-c3nnc(SCC(=O)O)[nH]3)cc([N+](=O)[O-])c2)c1 [Compound 49] | 0.507 | –
O=C(O)CSc1nnc(-c2ccc(O)c([N+](=O)[O-])c2)[nH]1 [Compound 128] | – | 6.8
Cn1nc(C(F)(F)F)cc1-c1cc(-c2nnc(SCC(=O)O)[nH]2)cc([N+](=O)[O-])c1 [Compound 97] | 2.49 | –
COc1cc(-c2nnc(SCC(=O)O)[nH]2)cc2c1OCO2 [Compound 108] | 3.47 | –
CC(C)(O)c1ccc(-c2cc(-c3nnc(SCC(=O)O)[nH]3)cc([N+](=O)[O-])c2)cc1 [Compound 61] | 0.786 | –
CS(=O)(=O)c1cccc(-c2nnc(SCC(=O)O)[nH]2)c1 [Compound 124] | – | 6.36
CC(C)Oc1ccc(-c2nnc(SCC(=O)O)[nH]2)cc1N [Compound 190] | 80.6 | –
Cc1noc(C)c1-c1cc(-c2nnc(SCC(=O)O)[nH]2)cc([N+](=O)[O-])c1 [Compound 91] | 1.38 | –
O=C(O)CSc1nnc(-c2cc(-c3cccc4cnccc34)cc([N+](=O)[O-])c2)[nH]1 [Compound 37] | 0.359 | –

SMILES | IC50 [µM] | IC50 [1] [µM]
O=C(O)CSc1nnc(-c2cccc(C(=O)Nc3cccc(Cl)c3)c2)[nH]1 [Compound 135] | 7.92 | –
O=C(O)CSc1nnc(-c2cc(-c3cc(Cl)c4ccccc4c3)cc([N+](=O)[O-])c2)[nH]1 [Compound 233] | 0.209 | –
CN(C)c1ccc(-c2cc(-c3nnc(SCC(=O)O)[nH]3)cc([N+](=O)[O-])c2)cc1 [Compound 52] | 0.518 | –
O=C(O)CSc1nnc(-c2cccc(F)c2O)[nH]1 [Compound 138] | – | 8.75
COc1cccc(NC(=O)c2cccc(-c3nnc(SCC(=O)O)[nH]3)c2)c1 [Compound 151] | 12.9 | –
CC(C)Oc1ccc(-c2nnc(SCC(=O)O)n2CC(=O)O)cc1[N+](=O)[O-] [Compound 193] | > 200 | –
CCCn1ccc2cc(-c3cc(-c4nnc(SCC(=O)O)[nH]4)cc([N+](=O)[O-])c3)ccc21 [Compound 25] | 0.227 | –
COc1cc(F)cc(-c2nnc(SCC(=O)O)[nH]2)c1 [Compound 98] | – | 2.61
O=C(O)CSc1nnc(-c2cc(-c3ccoc3)cc(-c3ccc4ccccc4c3)c2)[nH]1 [Compound 56] | 0.686 | –
O=C(O)CSc1nnc(-c2cccc(C(=O)Nc3ccc4c(c3)NC(=O)CC4)c2)[nH]1 [Compound 160] | 17.3 | –
CN(CCC#N)c1ccc(-c2nnc(SCC(=O)O)[nH]2)cc1 [Compound 179] | – | 35.3
CC(=O)Nc1cccc(-c2cc(-c3nnc(SCC(=O)O)[nH]3)cc([N+](=O)[O-])c2)c1 [Compound 42] | 0.431 | –
Cc1cn(C)c2ccc(-c3cc(-c4nnc(SCC(=O)O)[nH]4)cc([N+](=O)[O-])c3)cc12 [Compound 230] | 0.15 | –
O=C(O)CSc1nnc(-c2cccc(C(=O)Nc3ccc4cn[nH]c4c3)c2)[nH]1 [Compound 130] | 6.93 | –
N#Cc1cc2cc(-c3cc(-c4nnc(SCC(=O)O)[nH]4)cc([N+](=O)[O-])c3)ccc2[nH]1 [Compound 232] | 0.184 | –
Cc1ccc(-c2nnc(SCC(=O)O)[nH]2)c(O)c1 [Compound 129] | – | 6.88
O=C(O)CSc1nnc(-c2ccc(N3CCCCC3)cc2F)[nH]1 [Compound 180] | – | 35.7
Cc1c(-c2ccc3c(ccn3C)c2)cc(-c2nnc(SCC(=O)O)[nH]2)cc1[N+](=O)[O-] [Compound 9] | 0.103 | –
COc1cc(Cl)cc(-c2cccc(-c3nnc(SCC(=O)O)[nH]3)c2)c1 [Compound 41] | – | 0.426
